These results are taken from patent US20260242391A1 (priority 2023, published 2026).

pEC50, pIC50: −log10 of the molar value.

One data set is described as follows: in vitro. The note with it: human.
A further data set has as its system HL-60. The experiment in a line: HL-60 differentiation potency. The format is cell-based. Particulars: Homo sapiens.

A word on the pIC50: it is −log10 of the IC50, conventionally taken in molar units. Low values mean a high IC50, high ones a low IC50. Broadly, the pEC50 is the negative decadic logarithm of the EC50, by convention in mol/L. A lower pEC50 goes with a high EC50. Turning to `C[C@H]1[C@H](NCCS(=O)(=O)C(F)(F)F)O[C@@H]2O[C@@]3(C)CC[C@H]4[C@H](C)CC[C@@H]1[C@@]24OO3` [Compound 28, (3R,5aS,6R,8aS, 9R,10R,12R, 12aR)-3,6,9-trimethyl-N-(2-((trifluoromethyl)sulfonyl)ethyl) decahydro-12H-3,12-epoxy[1,2] dioxepino[4,3-i] isochromen-10-amine], in the data set “in vitro”, the negative-log IC50 (pIC50) was 6.35. In the data set on HL-60, this compound had a pEC50 of 6.59.
`C[C@H]1[C@@H](Oc2ccc(CC(=O)OC(C)(C)C)cc2)O[C@@H]2O[C@@]3(C)CC[C@H]4[C@H](C)CC[C@@H]1[C@@]24OO3` [Compound 132, tert-butyl 2-(4-(((3R,5aS,6R,8aS, 9R,10S,12R, 12aR)-3,6,9-trimethyldeca-hydro-12H-3,12-epoxy[1,2]dioxepino[4,3-i]isochromen-10-yl)oxy)phenyl) acetate]: the negative-log IC50 (pIC50) in “in vitro” was 8.00. The same compound showed a pEC50 in the data set on HL-60 of 7.91.
`C[C@H]1[C@@H](Oc2ccc(C(=O)N3CC(C(=O)O)C3)cc2)O[C@@H]2O[C@@]3(C)CC[C@H]4[C@H](C)CC[C@@H]1[C@@]24OO3` [Compound 149, 1-(4-(((3R,5aS,6R,8aS, 9R,10S,12R, 12aR)-3,6,9-trimethyldeca-hydro-12H-3,12-epoxy[1,2]dioxepino[4,3-i]isochromen-10-yl)oxy)benzoyl) azetidine-3-carboxylic acid] gave a pIC50 in “in vitro” below 4.70. In the data set with HL-60, this compound gave a pEC50 of 5.91.
In the case of `C[C@H]1[C@@H](OCC(C(=O)O)c2ccccc2)O[C@@H]2O[C@@]3(C)CC[C@H]4[C@H](C)CC[C@@H]1[C@@]24OO3` (stereo partly drawn) [Compound 172, 2-phenyl-3-(((3R,5aS,6R,8aS, 9R,10S,12R, 12aR)-3,6,9-trimethyldeca-hydro-12H-3,12-epoxy[1,2]dioxepino[4,3-i]isochromen-10-yl)oxy) propanic acid], in the data set “in vitro”, the negative logarithm of the IC50 (pIC50) was below 4.70. The compound further had a negative-log EC50 (pEC50) with HL-60 of 6.56.
For `C[C@H]1[C@@H](OC[C@H]2CCC[C@@H](C(=O)O)C2)O[C@@H]2O[C@@]3(C)CC[C@H]4[C@H](C)CC[C@@H]1[C@@]24OO3` [Compound 135, (1R,3S)-3-((((3R,5aS,6R, 8aS,9R,10S,12R, 12aR)-3,6,9-trimethyldeca-hydro-12H-3,12-epoxy[1,2]dioxepino[4,3-i]isochromen-10-yl)oxy)methyl) cyclohexane-1-carboxylic acid], in that order: below 4.70 and 6.65.
For `C[C@H]1[C@H](OCc2ccc(C(=O)O)c(Cl)c2)O[C@@H]2O[C@@]3(C)CC[C@H]4[C@H](C)CC[C@@H]1[C@@]24OO3` [Compound 92, 2-chloro-4-((((3R,5aS,6R, 8aS,9R,10R,12R, 12aR)-3,6,9-trimethyldeca-hydro-12H-3,12-epoxy[1,2]dioxepino[4,3-i]isochromen-10-yl)oxy)methyl) benzoic acid], in that order: below 4.70 and below 4.70.
In the case of `C[C@H]1[C@H](OCCCc2ccc(C(=O)O)cc2F)O[C@@H]2O[C@@]3(C)CC[C@H]4[C@H](C)CC[C@@H]1[C@@]24OO3` [Compound 174, 3-fluoro-4-(3-(((3R,5aS,6R,8aS, 9R,10R,12R, 12aR)-3,6,9-trimethyldeca-hydro-12H-3,12-epoxy[1,2]dioxepino[4,3-i]isochromen-10-yl)oxy)propyl) benzoic acid], in “in vitro”, the negative logarithm of the IC50 (pIC50) is 5.15. Moreover, the pEC50 with HL-60 is 6.95.
`C[C@H]1[C@@H](Oc2ccc(-c3nn[nH]n3)cc2)O[C@@H]2O[C@@]3(C)CC[C@H]4[C@H](C)CC[C@@H]1[C@@]24OO3` [Compound 73, 5-(4-(((3R,5aS,6R, 8aS,9R,10S,12R, 12aR)-3,6,9-trimethyldeca-hydro-12H-3,12-epoxy[1,2]dioxepino[4,3-i]isochromen-10-yl)oxy)phenyl)-2H-tetrazole]: the pIC50 in “in vitro” was 7.50. Moreover, in the data set on HL-60, the negative logarithm of the EC50 (pEC50) was 7.46.
